Measured values reported in a compilation of properties of binary mixtures (doi:10.1016/s1004-9541(08)60072-5).

Assay: xn = mol fraction of the nth substance listed
Details: 101 kPa

CN(C)C=O + CCCC[n+]1ccn(C)c1.F[P-](F)(F)(F)(F)F
x1 = 1
Details	viscosity [mPa·s]
293.15 K	0.91
298.15 K	0.87
308.15 K	0.78
313.15 K	0.75
318.15 K	0.72

CCCC[n+]1ccn(C)c1.F[P-](F)(F)(F)(F)F + CN(C)C=O
viscosity [mPa·s]
Details	x2 = 0	x2 = 0.1002	x2 = 0.2	x2 = 0.3002	x2 = 0.3999	x2 = 0.5	x2 = 0.6	x2 = 0.7	x2 = 0.7999	x2 = 0.8999
293.15 K	265	151.1	94.6	59.6	–	23.41	12.37	6.86	3.71	1.9
298.15 K	205.6	114.5	73.4	47.4	32.09	19.44	10.57	6.02	3.35	1.77
303.15 K	165.7	88.2	58	38.1	26.34	16.3	9.11	5.32	3.03	1.62
308.15 K	133.9	68.8	45.9	–	21.74	13.74	–	–	2.73	1.5
313.15 K	110.8	54.9	37.4	25.68	18.3	11.82	6.94	4.22	2.51	1.4
318.15 K	–	44.6	–	21.55	15.57	10.24	–	3.82	2.3	1.31
